How the values were obtained:
CYP3A4 = assay: CYP induction in human hepatocytes, CYP3A4 enzyme activity; type: in vitro ADME
Procedure: (§1) […] […] […] Enzyme activity for each CYP isoform was reported as a fold change over vehicle control and the percent of positive control (detailed calculation in Supplementary 1.1). Hepatocytes were harvested with a lysis buffer from RNeasy 96 Kit (Qiagen Inc., Germantown, MD, USA) to isolate RNA, which was analyzed by real-time quantitative polymerase chain reaction (RT-PCR). […] Emax (the maximal observed induction) and EC50 (the concentration that supports half-maximal induction) were estimated by non-linear regression of fold increase in CYP mRNA expression versus concentration plots.
The fold of vehicle control and the percent of positive control were calculated with the formulas below:
Fold of vehicle control = CYPs activity of test compound (or positive control) treated sample / CYPs activity of vehicle control treated sample
(§2) % of positive control = [(fold change in treated sample)-1] / [(fold change in positive control)-1] × 100

CYP3A4 mRNA = assay: CYP induction in human hepatocytes, CYP3A4 mRNA (RT-PCR); type: in vitro ADME
Procedure: as §1, §2

MATE1 = molecular target: T1, MATE1 (Homo sapiens, UniProt Q96FL8); assay: MATE1 inhibition, tetraethylammonium uptake in transfected HEK293 cells
T1 sequence (Q96FL8 1-570): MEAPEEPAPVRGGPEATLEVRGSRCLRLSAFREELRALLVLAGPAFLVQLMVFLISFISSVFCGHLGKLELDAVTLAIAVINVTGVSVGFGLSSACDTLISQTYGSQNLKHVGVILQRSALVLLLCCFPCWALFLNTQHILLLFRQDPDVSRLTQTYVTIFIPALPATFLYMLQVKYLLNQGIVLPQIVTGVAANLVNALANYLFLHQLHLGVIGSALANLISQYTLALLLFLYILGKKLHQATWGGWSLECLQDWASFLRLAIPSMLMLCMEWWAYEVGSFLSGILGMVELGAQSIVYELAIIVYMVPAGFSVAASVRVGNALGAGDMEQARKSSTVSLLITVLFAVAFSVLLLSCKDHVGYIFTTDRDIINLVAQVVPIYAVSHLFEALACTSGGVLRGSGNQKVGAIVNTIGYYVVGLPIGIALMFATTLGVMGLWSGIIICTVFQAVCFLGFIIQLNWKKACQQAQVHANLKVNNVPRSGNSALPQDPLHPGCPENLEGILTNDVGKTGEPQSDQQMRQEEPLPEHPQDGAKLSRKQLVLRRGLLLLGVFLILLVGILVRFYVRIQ
Procedure: The pre-incubation solutions were removed, and incubation solutions containing the inhibitors and probe substrates (or transport buffer containing an equal volume of vehicle control and probe substrates) were added and incubated at 37°C for 2 min (5 min for OATP1B3). The probe substrate for OAT1 was 4-aminohippuric acid (10 μM), for OAT3 was estrone 3-sulfate (10 μM), for OCT2 was metformin (100 μM), for OATP1B1 was β-estradiol 17-(β-D-glucuronide) (5 μM), for OATP1B3 was β-estradiol 17-(β-D-glucuronide) (10 μM), and for MATE1 and MATE2-K was tetraethylammonium (10 μM). After incubation, cells were washed three times with ice-cold transport buffer (25 mM HEPES, pH 7.4, pH 8.0 for overexpressing MATE1 and MATE2-K HEK293 cells) and lysed in distilled water. The concentrations of probe substrates were determined by LC-MS/MS, and a BCA Kit (Solarbio ®Life Sciences, Beijing, China) was used to determine the protein content in the cell lysate.
where C is the concentration of the drug in the cell lysate (nM), P is the protein concentration of the cell lysate (mg/mL), and T is the incubation time (minute). Uptake ratetest compound is the uptake rate of the substrate in the presence of the test compound. Uptake ratevehicle control is the uptake rate of the substrate in the presence of the vehicle control. Uptake ratepassive is the uptake rate of the substrate in the presence of the positive inhibitor at the top test concentration.

C[C@H](Nc1ncnc(N)c1C#N)c1cc2ncc(Cl)n2nc1-c1ccccc1 [Amdizalisib]
Enzyme activity Percent of PC (%) (CYP3A4; CYP3A4, donor seven, 1 µM): 4.50%
Enzyme activity Percent of PC (%) (CYP3A4; CYP3A4, donor seven, 3 µM): 4.60%
Enzyme activity Percent of PC (%) (CYP3A4; CYP3A4, donor seven, 10 µM): 19.8%
Enzyme activity Percent of PC (%) (CYP3A4; CYP3A4, donor seven, 20 µM): 5.20%
Enzyme activity Percent of PC (%) (CYP3A4; CYP3A4, donor seven, 30 µM): 4.60%
Enzyme activity Percent of PC (%) (CYP3A4; CYP3A4, donor six, 1 µM): 0.50%
Enzyme activity Percent of PC (%) (CYP3A4; CYP3A4, donor six, 3 µM): 3.60%
Enzyme activity Percent of PC (%) (CYP3A4; CYP3A4, donor six, 10 µM): 19.8%
Enzyme activity Percent of PC (%) (CYP3A4; CYP3A4, donor six, 20 µM): 28.9%
Enzyme activity Percent of PC (%) (CYP3A4; CYP3A4, donor six, 30 µM): 17.7%
Enzyme activity Percent of PC (%) (CYP3A4; CYP3A4, donor two, 1 µM): 0.10%
Enzyme activity Percent of PC (%) (CYP3A4; CYP3A4, donor two, 3 µM): 0.40%
Enzyme activity Percent of PC (%) (CYP3A4; CYP3A4, donor two, 10 µM): 4.40%
Enzyme activity Percent of PC (%) (CYP3A4; CYP3A4, donor two, 20 µM): 1.30%
Enzyme activity Percent of PC (%) (CYP3A4; CYP3A4, donor two, 30 µM): 1.40%
induction of CYP3A4 enzyme activity (CYP3A4; up to 30.0 µM, all three donors): not considered an inducer
R3 value (CYP3A4 induction, basic kinetic model) (CYP3A4 mRNA): ≤ 0.8
induction on CYP3A4 mRNA expression (CYP3A4 mRNA; 20 uM): >2-fold induction on CYP1A2, 2B6, 3A4, 2C9 mRNA expression at 20 uM
Gene expression Percent of PC (%) (CYP3A4 mRNA; CYP3A4, donor seven, 1 µM): 8.40%
Gene expression Percent of PC (%) (CYP3A4 mRNA; CYP3A4, donor seven, 3 µM): 2.70%
Gene expression Percent of PC (%) (CYP3A4 mRNA; CYP3A4, donor seven, 10 µM): 46.6%
Gene expression Percent of PC (%) (CYP3A4 mRNA; CYP3A4, donor seven, 20 µM): 23.3%
Gene expression Percent of PC (%) (CYP3A4 mRNA; CYP3A4, donor seven, 30 µM): 53.6%
Gene expression Percent of PC (%) (CYP3A4 mRNA; CYP3A4, donor six, 1 µM): 1.00%
Gene expression Percent of PC (%) (CYP3A4 mRNA; CYP3A4, donor six, 3 µM): 1.60%
Gene expression Percent of PC (%) (CYP3A4 mRNA; CYP3A4, donor six, 10 µM): 11.9%
Gene expression Percent of PC (%) (CYP3A4 mRNA; CYP3A4, donor six, 20 µM): 21.4%
Gene expression Percent of PC (%) (CYP3A4 mRNA; CYP3A4, donor six, 30 µM): 21.9%
Gene expression Percent of PC (%) (CYP3A4 mRNA; CYP3A4, donor two, 1 µM): 1.30%
Gene expression Percent of PC (%) (CYP3A4 mRNA; CYP3A4, donor two, 3 µM): 0.60%
Gene expression Percent of PC (%) (CYP3A4 mRNA; CYP3A4, donor two, 10 µM): 15.9%
Gene expression Percent of PC (%) (CYP3A4 mRNA; CYP3A4, donor two, 20 µM): 13.4%
Gene expression Percent of PC (%) (CYP3A4 mRNA; CYP3A4, donor two, 30 µM): 28.1%
Emax, CYP3A4 expression (CYP3A4 mRNA; donor seven): 6.97 fold
Emax, CYP3A4 expression (CYP3A4 mRNA; donor six): 35.7 fold
Emax, CYP3A4 expression (CYP3A4 mRNA; donor two): > 26.5 fold
IC50 (MATE1): 16.2 µM
calculated R value (MATE-1) (MATE1): < 1.1
Percentage transported (MATE1; MATE1, compound 0.3 μM): 98.0%
Uptake rate (MATE1; MATE1, compound 0.3 μM): 244±23.4 pmol/mg protein/min
Percentage transported (MATE1; MATE1, compound 1 μM): 86.1%
Uptake rate (MATE1; MATE1, compound 1 μM): 216±1.37 pmol/mg protein/min
Percentage transported (MATE1; MATE1, compound 3 μM): 73.2%
Uptake rate (MATE1; MATE1, compound 3 μM): 186±12.4 pmol/mg protein/min
Percentage transported (MATE1; MATE1, compound 10 μM): 49.2%
Uptake rate (MATE1; MATE1, compound 10 μM): 129±1.08 pmol/mg protein/min
Percentage transported (MATE1; MATE1, compound 30 μM): 47.8%
Uptake rate (MATE1; MATE1, compound 30 μM): 126±22.8 pmol/mg protein/min
Percentage transported (MATE1; MATE1, compound 100 μM): 23.6%
Uptake rate (MATE1; MATE1, compound 100 μM): 68.4±2.28 pmol/mg protein/min
inhibition at 2 min, 0.3 µM (MATE1; human, pH 8): 2.01%
inhibition at 2 min, 1 µM (MATE1; human, pH 8): 13.9%
inhibition at 2 min, 3 µM (MATE1; human, pH 8): 26.8%
inhibition at 2 min, 10 µM (MATE1; human, pH 8): 50.8%
inhibition at 2 min, 30 µM (MATE1; human, pH 8): 52.2%
inhibition at 2 min, 100 µM (MATE1; human, pH 8): 76.4%
